In a melting point compilation (Tetko et al.; mined from patent text by program, amines drawn as free bases though some values may be those of a salt) one finds melting point data, which are given here for 89 molecules.

Bounds are passed on as bounds.

`COC(=O)C(C)(C)OCc1cc2cc(C(F)(F)F)ccc2n1S(=O)(=O)c1cc(C)cc(C)c1` registered a melting point of 132 to 134 °C.
As for `CC1(C)CC(=O)Nc2ccc(Br)cc21`, the melting point fell in the range of 176 to 179 °C.
In the case of `COC(=O)CCCCCCc1nc(C)sc1C(=O)O`, the melting point is 106 to 107 °C.
As to `CC1CCCCN1C(=O)C=Cc1ccc(C(F)(F)F)cc1` (centres undefined), the melting point lay in the range of 88 to 89 °C.
For `Cn1ncc2c(=O)n3c(nc21)SC(c1ccccc1)C3` (centres undefined), the melting point stood at 191 °C.
For the molecule `CCOC(=O)CON1C(=O)C(=O)N(c2cc(Cl)ccc2C)C1=S`, the melting point is 157 to 159 °C.
With `CC(=O)N(C(C)=O)C(C)=C1CC2C3CC4C2C4C13` (centres undefined) the figure was 112 to 128 °C; with `O=C(O)c1cc(-c2ccccc2)c2c(n1)OCCN(Cc1cc(C(F)(F)F)cc(C(F)(F)F)c1)C2=O`, 119 to 123 °C.
In the case of `O=C(O)CCCCCNC(=O)OCC1c2ccccc2-c2ccccc21`, the melting point came out at 116 °C.
`CCCn1c(=O)n(C2CCN(C(=O)OC(C)(C)C)CC2)c2ccccc21` had a melting point of 102 to 105 °C.
With `CCNC(=O)Nc1ccc(C(O)(C(F)(F)F)C(F)(F)F)cc1C(=O)OCC` the figure was 144 to 146 °C.
Molecule `CN(C)c1n[nH]c(=O)n1N(C)C` registered a melting point of 93 °C.
For the molecule `COc1c(-c2ccc(C=NNS(C)(=O)=O)cc2)cc(N2CCC(=O)NC2=O)cc1C(C)(C)C`, the melting point fell in the range of 209 to 211 °C.
The molecule `COc1cc([N+](=O)[O-])c2nc(OCc3ccc(Cl)cc3)ccc2c1` had a melting point of 130 to 134 °C.
With `Cc1cc(COc2nn3c(-c4ccccc4)nnc3cc2-c2ccccc2)no1` the figure was 180 °C; with `O=c1n(-c2cc(O)c([N+](=O)[O-])cc2F)nc2ccc(Cl)cn12`, 207 to 209 °C.
Consider `CCc1cc(S(=O)(=O)N(C)C)ccc1-c1cnc2[nH]c(CCc3cc(OC)ccn3)nc2c1`, for which the melting point fell in the range of 179 to 180 °C.
As to `COc1ccc2c(c1)C(CCNC(=O)C(F)(F)F)=CC2`, the melting point lay in the range of 87 to 88 °C.
Molecule `O[C@H]1COC(c2ccc(Cl)cc2)=N[C@@H]1c1ccccc1` (racemic) gave a melting point of 142 °C.
For the molecule `C=C(C)C(C(=O)OC(C)(C)C)C1(CC(C)C)CCN(CCc2ccccc2)C1=O` (centres undefined), the melting point lay in the range of 54.5 to 56 °C.
`CNC(=O)n1nc(Oc2ccc([N+](=O)[O-])c(C(F)(F)F)c2)cc1C` came in with a melting point of 139 to 141 °C.
As for `CCCc1nc(C=Cc2ccccc2)c(C(=O)O)n1Cc1cc2c(cc1Cl)OCO2`, the figure is 230 °C; as for `C=CCNc1ccc([N+](=O)[O-])cc1C(=O)c1ccccc1`, 97 °C; as for `CCOC(=O)c1cn(Cc2ccccc2)nc1NC(=O)NC(C)(C)C`, 130 to 131 °C.
With `CC(C)(C)OC(=O)ON=C(C#N)c1ccc(Cl)cc1` the figure was 91 to 92 °C.
Take `CCOC(=O)c1ccc(CC(C)NCC(O)c2ccc(O)c(CO)c2)cc1` (centres undefined): the melting point is 92 to 96 °C.
`Cc1nn(-c2c(Cl)cc(C(F)(F)F)cc2Cl)c(N)c1C#N` showed a melting point of 194 to 196 °C.
For `COc1ccc(-c2cc3c(n2CCN(C)C)CCCC3)cc1`, the melting point lay within 81 to 82 °C.
As for `CC(C)=CCN(CC=C(C)C)Cc1noc(-c2ncn3c2[C@@H]2CCN2C(=O)c2ccccc2-3)n1`, the figure is 119 to 122 °C; as for `CCOC(=O)c1c(CC)ncnc1NCCc1ccc(CCOS(C)(=O)=O)cc1`, 84 to 86 °C.
As for `CS(=O)c1nccc(-c2nc(=O)c3ccccc3s2)n1` (centres undefined), the figure is 250 to 252 °C; as for `CC(C)(C)OC(=O)N1CCC[C@@H]1[C@@H](NC(=O)c1ccc(Cl)cc1)NC(=NC#N)Nc1cccnc1`, 184 to 185 °C; as for `COc1ccc(-c2cc(F)c(F)cc2-c2ccc(S(C)(=O)=O)cc2)cc1C`, 160 to 162 °C.
`CC(C)c1c(C=C(Cl)Cl)c(-c2ccc(F)cc2)c2n1CCCC2` had a melting point of 118 to 120 °C.
As for `O=C(O)c1cc(=O)c2cccc(/C=C/c3ccc(OCCCCc4ccccc4)cc3)c2o1`, the figure is 159 to 161 °C.
As for `Cc1ccc2nc(NC(=N)N)[nH]c2c1C`, the figure is 122 to 124 °C.
As to `CC(C)c1nn(-c2ccc(C(F)(F)F)cn2)cc1CCCCOc1cc(CCC(=O)O)n(-c2ccccc2)n1`, the melting point is 137 to 138 °C.
With `O=C(O)c1ccc(OC(F)(F)F)c(Cl)c1` the figure was 110 to 112 °C; with `CCCCCC(C)C(C)c1cc(O)c2c(c1)OC(C)(C)C1=C2CN(CC(=O)NC)CC1` (centres undefined), 131 to 134 °C; with `CCOC(=O)C1=Cc2cc(Cl)c(Oc3ccc(OC)cc3)cc2OC1C(F)(F)F` (centres undefined), 116 to 117 °C.
`Cc1cc(CC(=O)N[C@H]2CC[C@H](CCN3CCC(c4cccc5c4CCO5)CC3)CC2)on1`: the melting point turned out to be 188 °C.
Regarding `CCNC(=O)c1c(Cl)cccc1[Si](C)(C)C1CC2CCC1C2` (centres undefined), the melting point was in the range of 124 to 125 °C.
With `CN1C(C(=O)Nc2cccccc2=O)=C(OC(=O)C=Cc2ccccc2)c2sccc2S1(=O)=O`, the melting point lay in the range of 167 to 170 °C.
Regarding `O=C(Nc1nc2ccc(Sc3cnc4ncccn34)cc2s1)c1ccccc1`, the melting point was over 260 °C.
On to `CCOc1nn(Cc2ccc(OCc3nc(-c4ccccc4)oc3C)nc2)cc1CC(=O)O`, for which the melting point was 126 to 127 °C.
With `COC(=O)c1cccc2c(=O)c3c(I)cccc3[nH]c12` the figure was 239 to 241 °C.
Take `CN1CCC(=O)C(C(c2ccccc2)c2ccccc2)C1` (centres undefined): the melting point lay in the range of 127 to 128 °C.
On to `Cc1cc(O)c(F)cc1Br`, for which the melting point is 44 to 46 °C.
`Cc1cc(N)ccc1Oc1ccc(Oc2ccc(N)cc2C)cc1` gave a melting point of 195 to 196 °C.
The molecule `COc1cc(N)c(C(N)=O)c(OC)c1` came in with a melting point of 117 to 119 °C.
Take `CN1C(=O)[C@H](NC(=O)/C=C/c2ccccc2Br)N=C(c2ccccc2)c2ccccc21`: the melting point lay within 113 to 116 °C.
`C#CCCCCCCCOc1cccc(C(N)=O)c1`: the melting point was 82 to 83 °C.
In turn, `COC(C)CCC1(O)C2=NCCCN2c2cc(Cl)ccc21` (centres undefined) registered a melting point of 146 to 148 °C.
`CC1(O)CCC(=O)N(O)C1` (centres undefined) gave a melting point of 98 to 100 °C.
As for `COc1cc2c(cc1Nc1ncc(Cl)c(Nc3ccccc3S(=O)(=O)N(C)C)n1)CCN(CCOC(=O)CN)CC2`, the melting point is 77 to 79 °C.
Consider `CCOC(=O)CC(=O)N(C)c1ccc(Cl)cc1[N+](=O)[O-]`, for which the melting point lay in the range of 45 to 47 °C.
`CCOC(=O)CC(=O)c1cc(F)c(Cl)cc1Cl`: the melting point was 44 to 45 °C.
The molecule `CN1CCN(C(=O)C(CC(=O)N2Cc3cscc3C2)Cc2ccccc2)CC1` (centres undefined) yielded a melting point of 156 to 158 °C.
The molecule `CC(=O)Oc1c(N2CCCC2)c(=O)n(-c2ccccc2)c2ncccc12` had a melting point of 197 to 200 °C.
With `Nc1sc2c(c1C(=O)c1ccc(Cl)cc1)CCC(Cc1ccccc1)C2` (centres undefined) the figure was 60 to 62 °C.
Molecule `CCCCCCCS(=O)(=O)c1nn2c(=O)c(C)c(F)nc2s1` gave a melting point of 143 to 146 °C.
The molecule `CCOCc1nc2c(c(C)c(C)n3nnnc23)n1CCNC(=O)OC(C)(C)C` had a melting point of 197 to 199 °C.
The molecule `NC(=O)NN=Cc1ccc(Oc2ccc3c(c2)CCCC3)cc1` registered a melting point of 202 to 204 °C.
With `O=C(O)c1cc(=O)c2cc(F)ccc2o1` the figure was 261 to 262 °C.
With `CC(C)(C)c1ccc(C(=O)Nc2cn3cc(Cl)ccc3n2)cc1` the figure was 250 to 251 °C; with `COc1cc(C)c(C(=O)CCCCCCCCCCCCCCCCCCCCC(=O)O)c(O)c1OC`, 103 to 150 °C.
In turn, `CC(C)c1cccc(C(C)C)c1N=C(c1ccccc1)N(CC(=O)c1ccccc1)c1c(C(C)C)cccc1C(C)C` displayed a melting point of 142 to 143 °C.
Regarding `COc1ccc2[nH]c(-c3cccc(F)c3)cc(=O)c2c1OP(=O)(O)O`, the melting point is 179 to 181 °C.
`OC(c1ccc2cc(-c3n[nH]c4ccsc34)[nH]c2c1)(C1CC1)C1CC1`: the melting point was 110 to 112 °C.
`CCOC(=O)c1cnc(Cl)cc1NCc1ccc(OC)c(Cl)c1` showed a melting point of 116 to 118 °C.
In the case of `NNP(=S)(NN)Oc1ccccc1`, the melting point lay in the range of 94 to 95 °C.
`COc1ccc2ccc(CC3=NOS(=O)N3)cc2c1` (centres undefined) had a melting point of 146 to 147 °C.
Molecule `NC(=O)NN=C1CCCCC1n1nc(-c2c(-c3ccccc3)nn3ccccc23)ccc1=O` (centres undefined) registered a melting point of 227 to 229 °C.
Molecule `Cc1nc(C(N)=O)n(-c2ccc(Cl)c(Cl)c2)c1Cl` came in with a melting point of 144 to 145 °C.
As for `CSC1NC(=O)N(Cc2ccco2)C(=O)N1`, the figure is 209 to 211 °C; as for `Cc1ccc2c(O)cc(=O)oc2c1`, 179 to 182 °C; as for `O=S(=O)(c1ccc(-c2ccc(C(O)CCl)cc2)cc1)C(F)F` (centres undefined), 104 to 107 °C.
Turning to `CCCc1nc2c(N)nc3cc(OCc4cccc(C)c4)ccc3c2n1CC(C)C`, the melting point is 200 to 203 °C.
Consider `O=c1[nH]c2cc(Cl)ccc2c(O)c1-c1cccc(Cc2ccc(O)cc2)c1`, for which the melting point lay in the range of 288 to 292 °C.
For `O=S(=O)(Nc1ccc(Cl)cc1-c1cc(-c2ccc(F)cc2F)on1)C(F)(F)F`, the melting point lay within 117 to 119 °C.
`CC(=O)NCC1CC1c1cccc2nc(C(F)(F)F)cn12` (centres undefined) yielded a melting point of 135 to 137 °C.
As to `CC(C)(C)Oc1ccc(OC(=O)N2CCOCC2)cc1`, the melting point is 129 to 130 °C.
With `COC(=O)c1c(C)c([N+](=O)[O-])cc2nc(OC)c(OC)nc12` the figure was 174 to 176 °C; with `CCc1cc(N)c(C(=O)c2ccccc2)c(C)n1`, 200 to 202 °C.
Consider `N#CC1=C(C2CC2)Nc2n[nH]cc2C1c1cccc2nocc12` (centres undefined), for which the melting point amounted to 248 °C.
With `COc1ccc(C2=C(C#N)C(c3cccc4nsnc34)c3c[nH]nc3N2)cc1` (centres undefined) the figure was 238 °C; with `NS(=O)(=O)c1ccc(NC(=O)CNc2ccccc2)c(Cl)c1`, 185 to 186 °C; with `COC(=O)C(=CNc1ncnc2ccc(NC(=O)CC(C)(C)C)cc12)C(=O)OC`, 196 to 198 °C.
Turning to `Cc1nn(CCC(C)O)c(-c2ccc(F)cc2)c1-c1ccc2c(c1)NC(=O)CO2` (centres undefined), the melting point was 158 to 159 °C.

As usually defined, the melting point is the temperature, or range, at which the solid turns liquid.
